Test results from the supplement of paper PMC10307832.

Legend:
Experiment in all cases: relative viability (nuclei count vs DMSO), 5 days (fraction); higher = more cells survive
[1] = test system: ABC-1
Method in brief: (§1)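 A single step with final 0.05% Triton X-100, 1% formaldehyde and 1 ug/ml Hoechst fixed the cells and stained nuclei 5 days after treatment. Lung cancer cell lines in 1536-well plates had been treated by pin tool the day after seeding with one drug alone or a fixed anchor-drug dose plus five library-drug doses (not always all listed) in √10 steps, and nuclei were counted on 4× images. Relative viability is the ratio of nuclei in treated wells to nuclei in vehicle wells, taken as the median of duplicate plates.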

[2] = test system: BEN
Method in brief: as §1

[3] = test system: EPLC-272H
Method in brief: as §1

[4] = test system: HCC-827
Method in brief: as §1

[5] = test system: HOP-62
Method in brief: as §1

[6] = test system: LU99A
Method in brief: as §1

[7] = test system: NCI-H1355
Method in brief: as §1

[8] = test system: NCI-H1563
Method in brief: as §1

[9] = test system: NCI-H1666
Method in brief: as §1

[10] = test system: NCI-H1792
Method in brief: as §1

[11] = test system: NCI-H1975
Method in brief: as §1

[12] = test system: NCI-H23
Method in brief: as §1

[13] = test system: NCI-H2405
Method in brief: as §1

[14] = test system: NCI-H3122
Method in brief: as §1

[15] = test system: NCI-H322M
Method in brief: as §1

[16] = test system: NCI-H358
Method in brief: as §1

[17] = test system: NCI-H520
Method in brief: as §1

[18] = test system: NCI-H596
Method in brief: as §1

[19] = test system: NCI-H647
Method in brief: as §1

[20] = test system: NCI-H727
Method in brief: as §1

[21] = test system: NCI-H838
Method in brief: as §1

[22] = test system: PC-14
Method in brief: as §1

[23] = test system: UMC-11
Method in brief: as §1

SMILES: CCCCCCCCCCCC1=C(O)C(=O)C=C(O)C1=O [Embelin] + C[C@]1(O)C[C@@H](c2nc(-c3ccc4ccc(-c5ccccc5)nc4c3)c3c(N)nccn32)C1 [Linsitinib] (partner 1 µM)
- relative viability ([1]; first compound 0.08 µM): 0.863
- relative viability ([1]; first compound 0.8 µM): 0.786
- relative viability ([1]; first compound 2.53 µM): 0.772
- relative viability ([1]; first compound 8 µM): 0.825
- relative viability ([2]; first compound 0.08 µM): 0.976
- relative viability ([2]; first compound 0.8 µM): 1.25
- relative viability ([2]; first compound 2.53 µM): 1.09
- relative viability ([2]; first compound 8 µM): 0.898
- relative viability ([3]; first compound 0.08 µM): 1.31
- relative viability ([3]; first compound 0.8 µM): 1.48
- relative viability ([3]; first compound 2.53 µM): 1.32
- relative viability ([3]; first compound 8 µM): 1.03
- relative viability ([4]; first compound 0.08 µM): 0.997
- relative viability ([4]; first compound 0.8 µM): 0.949
- relative viability ([4]; first compound 2.53 µM): 0.992
- relative viability ([4]; first compound 8 µM): 1.01
- relative viability ([5]; first compound 0.08 µM): 0.937
- relative viability ([5]; first compound 0.8 µM): 1.05
- relative viability ([5]; first compound 2.53 µM): 1.06
- relative viability ([5]; first compound 8 µM): 0.96
- relative viability ([6]; first compound 0.08 µM): 0.537
- relative viability ([6]; first compound 0.8 µM): 0.618
- relative viability ([6]; first compound 2.53 µM): 0.552
- relative viability ([6]; first compound 8 µM): 0.472
- relative viability ([7]; first compound 0.08 µM): 0.757
- relative viability ([7]; first compound 0.8 µM): 0.813
- relative viability ([7]; first compound 2.53 µM): 0.968
- relative viability ([7]; first compound 8 µM): 0.724
- relative viability ([8]; first compound 0.08 µM): 1.14
- relative viability ([8]; first compound 0.8 µM): 1.18
- relative viability ([8]; first compound 2.53 µM): 1.16
- relative viability ([8]; first compound 8 µM): 1.16
- relative viability ([9]; first compound 0.08 µM): 0.898
- relative viability ([9]; first compound 0.8 µM): 0.995
- relative viability ([9]; first compound 2.53 µM): 0.83
- relative viability ([9]; first compound 8 µM): 0.97
- relative viability ([10]; first compound 0.08 µM): 0.589
- relative viability ([10]; first compound 0.8 µM): 0.607
- relative viability ([10]; first compound 2.53 µM): 0.72
- relative viability ([10]; first compound 8 µM): 0.434
- relative viability ([11]; first compound 0.08 µM): 0.976
- relative viability ([11]; first compound 0.8 µM): 0.994
- relative viability ([11]; first compound 2.53 µM): 1.04
- relative viability ([11]; first compound 8 µM): 0.973
- relative viability ([12]; first compound 0.08 µM): 0.548
- relative viability ([12]; first compound 0.8 µM): 0.547
- relative viability ([12]; first compound 2.53 µM): 0.609
- relative viability ([12]; first compound 8 µM): 0.652
- relative viability ([13]; first compound 0.08 µM): 0.978
- relative viability ([13]; first compound 0.8 µM): 1.16
- relative viability ([13]; first compound 2.53 µM): 0.973
- relative viability ([13]; first compound 8 µM): 0.92
- relative viability ([14]; first compound 0.08 µM): 1.01
- relative viability ([14]; first compound 0.8 µM): 0.946
- relative viability ([14]; first compound 2.53 µM): 1.01
- relative viability ([14]; first compound 8 µM): 1.12
- relative viability ([15]; first compound 0.08 µM): 0.936
- relative viability ([15]; first compound 0.8 µM): 1.08
- relative viability ([15]; first compound 2.53 µM): 1.1
- relative viability ([15]; first compound 8 µM): 0.856
- relative viability ([16]; first compound 0.08 µM): 0.691
- relative viability ([16]; first compound 0.8 µM): 0.908
- relative viability ([16]; first compound 2.53 µM): 0.92
- relative viability ([16]; first compound 8 µM): 0.842
- relative viability ([17]; first compound 0.08 µM): 1
- relative viability ([17]; first compound 0.8 µM): 0.849
- relative viability ([17]; first compound 2.53 µM): 0.869
- relative viability ([17]; first compound 8 µM): 1.03
- relative viability ([18]; first compound 0.08 µM): 1.11
- relative viability ([18]; first compound 0.8 µM): 1.14
- relative viability ([18]; first compound 2.53 µM): 1.25
- relative viability ([18]; first compound 8 µM): 1.05
- relative viability ([19]; first compound 0.08 µM): 1.31
- relative viability ([19]; first compound 0.8 µM): 1.27
- relative viability ([19]; first compound 2.53 µM): 1.32
- relative viability ([19]; first compound 8 µM): 1.28
- relative viability ([20]; first compound 0.08 µM): 0.282
- relative viability ([20]; first compound 0.8 µM): 0.192
- relative viability ([20]; first compound 2.53 µM): 0.307
- relative viability ([20]; first compound 8 µM): 0.268
- relative viability ([21]; first compound 0.08 µM): 1.06
- relative viability ([21]; first compound 0.8 µM): 1.13
- relative viability ([21]; first compound 2.53 µM): 1.03
- relative viability ([21]; first compound 8 µM): 1.07
- relative viability ([22]; first compound 0.08 µM): 0.921
- relative viability ([22]; first compound 0.8 µM): 1
- relative viability ([22]; first compound 2.53 µM): 1.06
- relative viability ([22]; first compound 8 µM): 0.972
- relative viability ([23]; first compound 0.08 µM): 1.03
- relative viability ([23]; first compound 0.8 µM): 1.08
- relative viability ([23]; first compound 2.53 µM): 1.11
- relative viability ([23]; first compound 8 µM): 0.984
